Measurements taken from publication PMC9599717, “The Multicellular Effects of VDAC1 N-Terminal-Derived Peptide” (Biomolecules, 2022).

Experiments:
vinculin in U-87MG cells = experiment: Vinculin immunofluorescence staining intensity; type: cell-based, human
Method: Cells were seeded on sterile glass coverslips in 12-well plates and cultured until reaching about 80% confluence. Cells were treated with D-Δ(1-18)N-Ter-Antp peptide in serum-free DMEM for 24 h. Then cells were washed with PBS, fixed in 4% paraformaldehyde for 20 min, washed three times with PBS, permeabilized with 0.3% Triton X-100 in PBS, and blocked, in blocking buffer (10% Normal goat serum, 1% fatty acid-free bovine serum albumin [BSA], 0.1% TritonX100 diluted in PBS) for 2 h. Cells were incubated overnight at 4 ℃ with the appropriate primary antibodies (Table S1), followed by three washes with PBS. […]
Quantitation of protein levels, as reflected in the staining intensity, was analyzed in the whole area of the sections using Image J software.
Figure 2 D-Δ(1-18)N-Ter-Antp-induced changes in cell morphology and cell membrane permeability. (A,B) U-87MG cells were treated with the indicated concentrations of D-Δ(1-18)N-Ter-Antp peptide for 16 h, and cell morphology was monitored by light microscope (A). Quantification of cell size (B). (C,D) U-87MG cells were untreated or treated with 10 μM of D-Δ(1-18)N-Ter-Antp peptide or N-TerΔ(21-26)-Antp for 24 h, and cell morphology was monitored by light microscope (C). Quantification of cell size (D). […] Quantification of vinculin staining intensity (F). […]

U-87MG cells = experiment: Acridine orange (AO) staining of acidic vesicles; type: cell-based, human; conditions: 6 h, serum-free DMEM
Method: Figure 7 D-Δ(1-18)-N-Ter-Antp peptide induced vesicle/particle formation. U-87MG cells were treated for 6 h with the indicated concentrations of D-Δ(1-18)N-Ter-Antp peptide in serum-free DMEM. (A) Cells were visualized for vesicle formation under a light microscope. Red circles indicate vesicles/particles. The images were captured at 40× and two folds enlargement is shown. (B,C) Cells were stained with acridine orange (AO). Arrows indicate red/orange stained endosomal/lysosomal vesicles (B). Scale bars were 20 μm. Vesicles/particles are indicated by violet arrows. Quantification of AO staining intensity (C). (D) Cells were stained with anti-vinculin antibodies, followed by secondary anti-mouse-cy3 antibodies. […] (F) U-87MG cells were treated with various concentrations of D-Δ(1-18)N-Ter-Antp peptide for the indicated time and subjected to Oil Red O staining and quantification as described in the Supplementary Data. […]
color was read in a spectrophotometer at 680 nm. […]
U-87MG cells were treated with D-Δ(1-18)N-Ter-Antp peptide in serum-free DMEM media for 6 h at 37℃, incubated with acridine orange (1 μg/ml) for 15 min, visualized by fluorescence microscopy (Olympus LX2 - KSP, Tokyo, Japan), and images were captured with a CCD camera. About 200 cells were counted for each […]

## 19-FTKGYGFGL-26- RQIKIWFQNRRMKWKK [D-Δ(1-18)N-Ter-Antp]
Vinculin in U-87MG cells
  Increase of vinculin expression compared to untreated cells: 4 fold
U-87MG cells
  Increase in orange color (AO accumulation in acidic vesicles): more than 3 fold
